Reference: paper PMC8708666, “Screening of Self-Assembling of Collagen IV Fragments into Stable Structures Potentially Useful in Regenerative Medicine” (International Journal of Molecular Sciences, 2021)

What was measured:
[1] = Microscopic examination of peptide aggregates stained with Congo Red; format: physicochemical; settings: phosphate buffer pH 7.2, 37.5 °C, 7 days
Description: In addition to CD studies, microscopic studies of peptides 1–33 and 2.1–2.4 stained with Congo Red were also performed. This method of visualization of peptide aggregates is a typical method of studying β-sheet structures in amyloid-type fibers.
In order to initiate aggregation, peptides were dissolved in a phosphate buffer solution of pH 7.2 and a concentration of 250 μM (approx. […] of peptide per 1 mL of solution) and incubated at 37.5 °C for 7 days.
Congo Red solution with a concentration of […] was prepared by dissolving the dye (Sigma-Aldrich) (17.42 mg; 0.025 mmol) in phosphate buffer (pH = 7.2) (10 mL) with the following composition: 100 mM NaH2PO4/Na2HPO4, 137 mM NaCl and 10% EtOH. Ethyl alcohol was added to the buffer to counteract the formation of dye micelles. A sample for microscopic analysis (peptide solution) was centrifuged at 12,000–14,000 rpm to precipitate. In the next step, the solution was decanted and the residue was washed three times with water to remove excess dye. Then, a suspension of the peptide in water was applied to a microscope slide. The samples were dried in a stream of air at room temperature and analyzed under polarized light.
The obtained structures were analyzed using a Delta Optical Genetic Pro (Warsaw, Poland) light microscope.

[2] = CD study of self-organization into structures mimicking the collagen triple helix; format: physicochemical; set-up: key to Ability to Mimic the Structure of the Collagen Helix: +++: peptides that were able to mimic the spatial structure of collagen at 4 °C, 20 °C and 40 °C; +: a fragment mimicking the spatial structure of collagen only at 4 °C; fragments that do not have the ability to aggregate into stable three-dimensional structures; settings: CD at 4 °C, 20 °C and 40 °C after 24 h incubation; for ability to self-organize into structures mimicking the triple helix (CD): water, 0.1 mg/mL
Excerpt: The next stage of the research was to check whether peptides 1–33 and 2.1–2.4 have the ability to self-organize, enabling the formation of structures mimicking the structure of the triple helix characteristic of collagens, including the COL domain of type IV collagen. The method of circular dichroism was used in the research, allowing both the secondary and tertiary structure of peptides and proteins to be determined. This method can also be successfully used to observe the process of protein self-organization depending on the temperature or pH. […] A characteristic feature of triple helix collagens is the maximum at about 220 nm and the minimum at about 190–200 nm. Based on literature data, the CD spectrum corresponding to the triple helix characteristic of collagens as a function of temperature was simulated (Figure 9j). The main factors stabilizing the collagen triple helix are the hydrogen bonds between the hydrogen atom of the amino group and the oxygen atom of the carbonyl group. These are relatively weak bonds, and their stability depends, inter alia, on temperature. Therefore, the stability of the collagen triple helix changes with the change of this factor. Due to the fact that the studied collagen fragments can be potentially used in regenerative medicine, it was necessary to check the stability of the structure in the temperature range as close as possible to physiological conditions. Therefore, the tests were performed at 4 °C, 20 °C and 40 °C after incubation for 24 h. The incubation process was to enable the self-assembly to form structures that mimic the triple helix of collagen. […] In the spectra, the presence of a characteristic maximum at a wavelength of about 220 nm and a minimum at about 190–200 nm was observed. However, the most important fact is that these peptides formed stable three-dimensional structures even at 40 °C.
The CD spectra were recorded using a Jasco J-1500 instrument (Jasco, Cracow, Poland) and quartz cuvettes with 1 mm optical path lengths. The measurements were acquired in the range of 190–270 nm at temperatures of 4 °C, 20 °C and 40 °C by taking points every 5 nm, with a scan rate of 100 nm per min, an integration time of 1 s, and a bandwidth of 4 nm. The samples were prepared in MiliQ purity water with a final concentration of 0.1 mg/mL. Samples before CD measurements were incubated for 24 h. at 4 °C, 20 °C and 40 °C using a Lauda thermostat.

α1β1 integrin (ITGα1β1) = α1β1 integrin (ITGα1β1) (Homo sapiens, UniProt P05556+P56199); assay: MST determination of Kd for labeled α1β1 integrin and collagen IV fragments; format: binding
α1β1 integrin (ITGα1β1), sequence (P56199 29-1141 limits assumed): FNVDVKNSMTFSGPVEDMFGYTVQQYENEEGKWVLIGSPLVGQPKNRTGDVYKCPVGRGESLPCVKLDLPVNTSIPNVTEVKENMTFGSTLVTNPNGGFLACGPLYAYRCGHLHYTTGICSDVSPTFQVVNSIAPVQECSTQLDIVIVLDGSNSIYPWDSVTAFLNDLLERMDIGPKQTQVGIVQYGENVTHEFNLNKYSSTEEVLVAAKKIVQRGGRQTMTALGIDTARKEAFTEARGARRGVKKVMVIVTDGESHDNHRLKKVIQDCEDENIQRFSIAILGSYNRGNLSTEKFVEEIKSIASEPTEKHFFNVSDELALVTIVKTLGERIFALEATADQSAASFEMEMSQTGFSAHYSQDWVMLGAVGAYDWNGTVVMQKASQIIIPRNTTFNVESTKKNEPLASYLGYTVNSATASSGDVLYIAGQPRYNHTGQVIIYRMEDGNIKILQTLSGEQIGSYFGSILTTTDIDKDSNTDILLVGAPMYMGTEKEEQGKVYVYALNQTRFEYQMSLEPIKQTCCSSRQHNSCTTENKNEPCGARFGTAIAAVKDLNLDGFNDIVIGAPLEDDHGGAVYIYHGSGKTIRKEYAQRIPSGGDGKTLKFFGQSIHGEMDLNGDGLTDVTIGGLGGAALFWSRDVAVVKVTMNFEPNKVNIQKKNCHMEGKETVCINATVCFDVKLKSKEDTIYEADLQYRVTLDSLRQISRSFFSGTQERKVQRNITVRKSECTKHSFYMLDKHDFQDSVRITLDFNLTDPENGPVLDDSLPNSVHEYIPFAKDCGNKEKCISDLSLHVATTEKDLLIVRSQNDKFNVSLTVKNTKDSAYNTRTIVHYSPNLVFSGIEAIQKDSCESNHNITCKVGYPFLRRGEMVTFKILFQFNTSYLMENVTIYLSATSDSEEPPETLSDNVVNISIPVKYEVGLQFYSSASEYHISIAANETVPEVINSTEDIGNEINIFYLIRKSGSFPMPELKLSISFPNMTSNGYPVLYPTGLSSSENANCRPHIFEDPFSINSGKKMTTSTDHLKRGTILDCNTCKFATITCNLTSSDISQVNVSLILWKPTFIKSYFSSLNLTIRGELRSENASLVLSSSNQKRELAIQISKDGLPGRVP
α1β1 integrin (ITGα1β1), sequence (P05556 21-728 limits assumed): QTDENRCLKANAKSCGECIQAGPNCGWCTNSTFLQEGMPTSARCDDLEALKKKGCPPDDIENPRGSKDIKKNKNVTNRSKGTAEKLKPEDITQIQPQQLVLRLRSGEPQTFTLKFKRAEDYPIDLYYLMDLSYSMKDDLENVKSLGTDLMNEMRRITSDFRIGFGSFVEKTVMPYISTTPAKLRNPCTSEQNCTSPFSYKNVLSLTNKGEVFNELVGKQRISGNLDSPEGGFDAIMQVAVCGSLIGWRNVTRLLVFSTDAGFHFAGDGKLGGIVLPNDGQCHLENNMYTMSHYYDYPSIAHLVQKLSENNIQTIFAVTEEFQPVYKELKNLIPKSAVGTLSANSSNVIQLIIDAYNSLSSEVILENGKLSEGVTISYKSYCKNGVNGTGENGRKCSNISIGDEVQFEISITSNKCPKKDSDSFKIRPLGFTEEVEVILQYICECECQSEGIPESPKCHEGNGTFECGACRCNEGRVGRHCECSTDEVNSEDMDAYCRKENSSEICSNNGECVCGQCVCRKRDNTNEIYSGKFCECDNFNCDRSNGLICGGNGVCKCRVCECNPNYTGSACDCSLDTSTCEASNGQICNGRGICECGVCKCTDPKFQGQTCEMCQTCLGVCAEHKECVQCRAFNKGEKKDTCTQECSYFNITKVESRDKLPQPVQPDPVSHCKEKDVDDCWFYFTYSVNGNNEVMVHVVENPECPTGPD
Description: The tests were performed using the Microscale Thermophoresis (MST) technique [86]. […] For MST experiment His-tagged ITGα1β1 was labeled using a fluorescent dye, which enable a site-specific and stable noncovalent fluorescence labeling of polyhistidine-tagged proteins. The concentrations of labeled ITGα1β1 were kept constant at 25 nM, whereas the peptides were used as titration ligands with increasing concentrations.
The α1β1 integrin concentration was kept constant (25 nM), while the non-labeled binding partner collagen IV peptides were used at increasing concentrations as the titration ligand. The MST measurement was performed at 80% or 100% (for peptide 4) LED power and medium (40%) MST power. An MST-on time 4 s was used for analysis and a Kd (µM ± µM confidence) was derived for these interactions (n ≥ 3 independent measurements, error bars represent standard deviation).
• Preparation of Materials for MST Analysis • (1) ITGα1β1—a solution with a concentration of 9.3 µM was prepared. For this, 50 µL of sterile PBS (filtered through a 0.22 µm filter) was added to the protein. […] The fluorescent dye OG488 (ex = 498 nm, ex = 526 nm) provide an efficient method for site-specific and stable noncovalent fluorescence labeling of polyhistidine-tagged proteins. • (3) A 0.05% Tween20 solution in PBS (PBST) was prepared. • Testing the Affinity of the Dye to the Protein […]

Substance | structure of aggregates stained with Congo Red [1] | ability to self-organize into structures mimicking the triple helix (CD) [2] | Kd (α1β1 integrin (ITGα1β1); labeled His-tagged ITGα1β1 25 nM, 22 °C, MST-on time 4 s, Kd ± confidence) | ability to bind to ITGα1β1 (in words) (α1β1 integrin (ITGα1β1); labeled ITGα1β1 25 nM) | Ability to Mimic the Structure of the Collagen Helix [2]
^671PGFPGPKGSR^680 [Peptide 13] | fibrous structures | only at 4 °C | – | – | –
^891LSGPKGEKGS^900 [Peptide 20] | fibrous structures resembling amyloid structures | not found | – | – | –
^1453VGYTLVKHSQSE^1464 [Peptide 2.3] | fibrous structures | only at 4 °C | – | – | –
^961MSNLWLKGDK^970 [Peptide 23] | fibrous structures resembling amyloid structures | not found | – | – | –
^1221PGLRGQKGDR^1230 [Peptide 28] | fibrous structures | only at 4 °C | – | – | –
^781PGLKGVHGKP^790 [Peptide 16] | fibrous structures resembling amyloid structures | not found | – | – | –
^541KGKKGEPILS^550 [Peptide 11] | fibrous structures resembling amyloid structures | not found | – | – | –
^471LKGIKGDSGF^480 [Peptide 9] | fibrous structures resembling amyloid structures | not found | – | – | –
^641PGQQGLPGSK^650 [Peptide 12] | fibrous structures | only at 4 °C | – | – | –
^1521HYARRNDKSY^1530 [Peptide 32] | fibrous structures resembling amyloid structures | not found | – | – | –
^841PGKKGTRGKK^850 [Peptide 18] | fibrous structures | only at 4 °C | – | – | –
^1451MRVGYTLVKH^1460 [Peptide 31] | fibrous structures resembling amyloid structures | not found | – | – | –
^81PGLLGPYGPK^90 [Peptide 3] | fibrous structures resembling amyloid structures | not found | – | – | –
^1520CHYARRNDKSYW^1531 [Peptide 2.4] | fibrous structures | only at 4 °C | – | – | –
^951PVGIPSPRRP^960 [Peptide 22] | fibrous structures resembling amyloid structures | not found | – | – | –
^21AGEKSYGKPC^30 [Peptide 1] | fibrous structures resembling amyloid structures | not found | – | – | –
^251GFPKGKKGSK^260 [Peptide 6] | only amorphous structures | have the ability to self-organize to form structures that mimic the structure of the triple helix | – | – | –
^1311KGMRGEPGFM^1320 [Peptide 29] | fibrous structures resembling amyloid structures | not found | – | – | –
^1101IGNIGFPGNK^1110 [Peptide 26] | only amorphous structures | have the ability to self-organize to form structures that mimic the structure of the triple helix | – | – | –
^921LKGIPGSTGK^930 [Peptide 21] | fibrous structures resembling amyloid structures | not found | – | – | –
^721LPGFPGLPGK^730 [Peptide 15] | only amorphous structures | have the ability to self-organize to form structures that mimic the structure of the triple helix | no binding | no binding | +++
^1446MPGQSMRVGYTL^1457 [Peptide 2.2] | fibrous structures | only at 4 °C | – | – | –
^1211PGIGIGAPGK^1220 [Peptide 27] | fibrous structures resembling amyloid structures | not found | – | – | –
^1661AGQLHTRVSR^1670 [Peptide 33] | fibrous structures | – | – | – | –
^1001GAPGLPGIIK^1010 [Peptide 24] | fibrous structures resembling amyloid structures | not found | – | – | –
^23EKSYGKPCGGQDC^35 [Peptide 2.1] | fibrous structures resembling amyloid structures | not found | – | – | –
^311GPPGQQGKKG^320 [Peptide 7] | fibrous structures | only at 4 °C | – | – | –
^41CFPEKGARGR^50 [Peptide 2] | only amorphous structures | have the ability to self-organize to form structures that mimic the structure of the triple helix | – | – | –
^711GFPGPRGEKG^720 [Peptide 14] | only amorphous structures | have the ability to self-organize to form structures that mimic the structure of the triple helix | – | – | –
^821GIKGKSGLPG^830 [Peptide 17] | fibrous structures | only at 4 °C | – | – | –
